Patent US20250236607A1, “CYCLIN-DEPENDENT KINASE 9 (CDK9) DEGRADERS AND METHODS OF USING THEREOF” (OHIO STATE INNOVATION FOUNDATION, priority 2022, published 2025)
Converted amounts (≈) assume the structure as drawn. Where two headings read alike, the source gives them in different places.

Assays:
MOLM13 cells = experiment: Cytotoxicity against MOLM13 cells; assay type: cell-based; settings: MOLM13 cells, read-out: IC50
Text: (§1) Through amide coupling using I-ethyl-3-carbodiimide hydrochloride (EDC.HCl), the alkynyl derivatives of 4.16, 4.29 and 4.30 were synthesized. Using these VIP152-derivatives, degraders 4.31, 4.33 and 4.34 were synthesized using click chemistry. Degrader 4.32 was also synthesized using amide coupling conditions with (1-[Bis([…])methylene]-1H-1,2,3-triazolo[4,5-b]pyridinium 3-oxide hexafluorophosphate (HATU) and the carboxylic acid 4.28. Scheme 7 illustrates the synthesis of this initial series. The series was evaluated for cytotoxicity against MOLM13 cells (IC50) and for their CDK9 degradation potency (DC50). The results are provided in Table 3.

CDK9 = molecular target: T1, CDK9 (Homo sapiens, UniProt P50750+Q96SW2); experiment: CDK9 degradation potency (DC50) of VIP152-based degraders; assay type: cell-based; settings: VIP152-based series
T1 construct: endogenous in cells
Text: as §1

Kinetic solubility assay = settings: kinetic solubility, PBS pH 7.4; for solubility at 1.5 h: phosphate buffered saline, pH 7.4, aqueous buffer, kinetic from dmso stock, Solubility (μM)
Description: Kinetic Solubility Assay. Kinetic solubility (KS) was measured according to Millipore protocol PC2445 EN00. Test compounds were weighed and diluted with DMSO to 10 mM. From the stock solutions as well as blank (100% DMSO) was taken 17.5 μL and diluted to 500 μM with 332.5 μL of 100 mM phosphate Buffered Saline (PPBS) at pH 7.4 in a 96-well quartz plate. From the 500 μM solutions was taken 150 μL and dispensed into a 96-well Millipore filter plate (Product number: MSSLBPC10). In the quartz plate, serial dilutions were performed down to 0.5 μM using the 100 mM PBS solution, leaving 100 μL of each test sample at 11 different concentrations, representing standards. These steps were performed in triplicate, at minimum, for each test compound. Both plates were shaken on an orbital shaker at 150 rpm for 1.5 hours. The contents of the filter plate were filtered and 100 μL of the filtrate from each well was dispensed into the quartz plate containing standards. The quartz plate was then analyzed using a UV plate reader where absorbance was measured at the relevant wavelength for each compound. After blank subtraction, for each test sample, solubility was determined based on the optical density of filtered samples and the equations derived from the corresponding linear standard curve.

[1] = Chromatographic log D determination (log k′80); assay type: physicochemical; settings: chromatographic log D, PLRP-S column, pH 7.72
Description: Chromatographic Log D Determination. Test samples were prepared from 10 mM stock solutions in DMSO, to make 122 μM solutions in acetonitrile. Retention times were determined on a Shimadzu High Performance Liquid Chromatography (HPLC) system with Agilent PLRP-S column, 100 Å, 5 um particle size, 50×4.6 mm (part no.: PL1512-1500) with 1 mL/min flow rate. A 65 mM aqueous solution of ammonium acetate was prepared in water and diluted with acetonitrile to give 0.1% ammonium acetate 20:80 acetonitrile solution with pH 7.72. Eluents were detected with UV spectrophotometry at 337 nm. As a standard set, the retention times of β-estradiol, nifedipine, quinoline, phenol and 2-nitrophenol were determined (log k′80) and the dead time was extrapolated based on the reported log k′80 values originally reported by Caron et. al (log k′80*). The average value of the dead time for the standard set was 0.3001 minutes. Therefore, for consistency, 0.3 minutes was used as the dead time for all test samples. Experiments were performed in triplicate with a maximum percent standard deviation of 6.85%.

[2] = Homo sapiens, MOLM-13, cytotoxicity

T1 sequence (P50750 whole entry): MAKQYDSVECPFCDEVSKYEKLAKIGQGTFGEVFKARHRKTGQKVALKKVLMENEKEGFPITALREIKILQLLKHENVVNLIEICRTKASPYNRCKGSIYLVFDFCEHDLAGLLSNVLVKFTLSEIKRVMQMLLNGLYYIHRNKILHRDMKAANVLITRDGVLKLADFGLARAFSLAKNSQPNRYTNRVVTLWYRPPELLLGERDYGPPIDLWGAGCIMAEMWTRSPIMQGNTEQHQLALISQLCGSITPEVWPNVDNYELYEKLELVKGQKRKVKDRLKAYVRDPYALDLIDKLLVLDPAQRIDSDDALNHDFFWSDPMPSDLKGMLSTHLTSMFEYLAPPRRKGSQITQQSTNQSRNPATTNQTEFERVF
T1 sequence (O60563 whole entry partner): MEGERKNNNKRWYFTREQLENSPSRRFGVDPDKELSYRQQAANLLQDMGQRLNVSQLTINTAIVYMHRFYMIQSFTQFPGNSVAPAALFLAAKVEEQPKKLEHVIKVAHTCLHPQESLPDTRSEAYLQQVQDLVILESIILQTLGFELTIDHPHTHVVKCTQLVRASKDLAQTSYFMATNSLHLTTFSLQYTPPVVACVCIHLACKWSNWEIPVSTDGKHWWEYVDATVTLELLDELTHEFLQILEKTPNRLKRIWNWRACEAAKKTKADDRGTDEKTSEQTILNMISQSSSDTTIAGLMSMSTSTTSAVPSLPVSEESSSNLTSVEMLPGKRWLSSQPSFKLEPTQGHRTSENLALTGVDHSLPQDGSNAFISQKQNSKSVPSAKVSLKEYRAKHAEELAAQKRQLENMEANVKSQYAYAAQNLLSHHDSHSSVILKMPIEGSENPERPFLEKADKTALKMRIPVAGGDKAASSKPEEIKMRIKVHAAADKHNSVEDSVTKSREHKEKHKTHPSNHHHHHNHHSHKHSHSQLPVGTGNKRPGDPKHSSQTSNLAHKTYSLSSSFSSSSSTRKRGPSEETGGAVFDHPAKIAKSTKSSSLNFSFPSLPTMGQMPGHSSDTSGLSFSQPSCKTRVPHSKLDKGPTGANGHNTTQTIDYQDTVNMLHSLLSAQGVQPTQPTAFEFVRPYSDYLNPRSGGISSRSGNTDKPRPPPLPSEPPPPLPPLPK
T1 sequence (Q96SW2 whole entry): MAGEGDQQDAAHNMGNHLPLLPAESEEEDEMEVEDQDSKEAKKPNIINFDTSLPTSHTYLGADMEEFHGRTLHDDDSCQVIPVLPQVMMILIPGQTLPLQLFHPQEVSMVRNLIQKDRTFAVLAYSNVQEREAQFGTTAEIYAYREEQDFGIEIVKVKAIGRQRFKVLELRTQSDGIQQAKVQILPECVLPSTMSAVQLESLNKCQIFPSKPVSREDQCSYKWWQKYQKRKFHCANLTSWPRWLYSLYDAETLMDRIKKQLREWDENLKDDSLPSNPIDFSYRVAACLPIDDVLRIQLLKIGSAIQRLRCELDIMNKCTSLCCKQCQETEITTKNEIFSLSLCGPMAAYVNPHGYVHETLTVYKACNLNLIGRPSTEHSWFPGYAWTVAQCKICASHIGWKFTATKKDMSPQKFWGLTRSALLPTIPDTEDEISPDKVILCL
T1 sequence (Q16531 whole entry partner): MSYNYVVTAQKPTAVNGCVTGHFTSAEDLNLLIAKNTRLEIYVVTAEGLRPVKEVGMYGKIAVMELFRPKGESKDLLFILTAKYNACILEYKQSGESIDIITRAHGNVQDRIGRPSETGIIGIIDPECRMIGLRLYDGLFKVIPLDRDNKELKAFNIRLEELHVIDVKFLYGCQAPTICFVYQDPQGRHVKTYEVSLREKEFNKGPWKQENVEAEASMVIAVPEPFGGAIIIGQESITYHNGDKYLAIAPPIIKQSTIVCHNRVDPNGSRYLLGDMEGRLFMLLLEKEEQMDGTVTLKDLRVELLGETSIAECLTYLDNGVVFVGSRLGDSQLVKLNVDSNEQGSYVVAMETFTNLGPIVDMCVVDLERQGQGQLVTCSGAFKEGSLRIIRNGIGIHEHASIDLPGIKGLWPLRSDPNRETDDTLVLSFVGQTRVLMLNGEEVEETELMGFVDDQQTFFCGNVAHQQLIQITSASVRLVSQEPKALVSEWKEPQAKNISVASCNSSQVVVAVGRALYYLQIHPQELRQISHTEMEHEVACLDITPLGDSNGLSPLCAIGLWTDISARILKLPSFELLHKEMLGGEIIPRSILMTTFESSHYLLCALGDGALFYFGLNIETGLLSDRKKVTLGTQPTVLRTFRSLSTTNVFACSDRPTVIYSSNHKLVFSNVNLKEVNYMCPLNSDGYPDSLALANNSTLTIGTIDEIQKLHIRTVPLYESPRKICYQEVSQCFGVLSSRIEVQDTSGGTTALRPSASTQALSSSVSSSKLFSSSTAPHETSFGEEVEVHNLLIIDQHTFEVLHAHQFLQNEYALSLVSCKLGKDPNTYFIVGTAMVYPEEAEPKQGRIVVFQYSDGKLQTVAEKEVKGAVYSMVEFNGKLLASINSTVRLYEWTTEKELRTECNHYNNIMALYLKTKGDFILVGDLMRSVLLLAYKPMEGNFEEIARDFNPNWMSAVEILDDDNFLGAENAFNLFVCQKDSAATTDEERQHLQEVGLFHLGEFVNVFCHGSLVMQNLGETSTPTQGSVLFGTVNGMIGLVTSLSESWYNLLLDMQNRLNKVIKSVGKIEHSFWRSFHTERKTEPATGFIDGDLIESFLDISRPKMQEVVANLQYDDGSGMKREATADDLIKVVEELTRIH

| Structure (SMILES) | IC50 (MOLM13 cells; cytotoxicity) [nM] | DC50 (CDK9) [nM] | Solubility (Kinetic solubility assay) [µM] | logk′80 [1] | IC50 (MOLM13 cells; [2]) [nM] | solubility at 1.5 h (Kinetic solubility assay) [µM] |
| --- | --- | --- | --- | --- | --- | --- |
| COc1cc(F)ccc1-c1cc(Nc2cc(CS(C)(=O)=NC(=O)CN3CCC(c4cn(C5CN(c6cccc7c6C(=O)N(C6CCC(=O)NC6=O)C7=O)C5)nn4)CC3)ccn2)ncc1F (stereo not drawn) [Compound 4.60, 2-(4-(1-(1-(2-(2,6-dioxopiperidin-3-yl)-1,3-dioxoisoindolin-4-yl)azetidin-3-yl)-1H-1,2,3-triazol-4-yl)piperidin-1-yl)-N-(((2-((5-fluoro-4-(4-fluoro-2-methoxyphenyl)pyridin-2-yl)amino)pyridin-4-yl)methyl)(methyl)(oxo)-16-sulfaneylidene)acetamide] | 1910 | 1660 | 4.1 (≈ 3.72 µg/mL) | 0.16 |  |  |
| COc1cc(F)ccc1-c1cc(Nc2cc(CS(C)(=O)=NC(=O)CCC(=O)N3CC(N4CCC(Cn5cc(COc6cccc7c6C(=O)N(C6CCC(=O)NC6=O)C7=O)nn5)CC4)C3)ccn2)ncc1F (stereo not drawn) [Compound 4.91] |  | 260 |  | 0.09 | 590 | 3.8 (≈ 3.78 µg/mL) |
| COc1cc(F)ccc1-c1cc(Nc2cc(CS(C)(=O)=NC(=O)C3CCCN(Cc4cn(CC(=O)N5CCC(C#Cc6cccc7c6C(=O)N(C6CCC(=O)NC6=O)C7=O)CC5)nn4)C3)ccn2)ncc1F (stereo not drawn) [Compound 4.75, 1-({1-[2-(4-{2-[2-(2,6-dioxopiperidin-3-yl)-1,3-dioxo-2,3-dihydro-1H-isoindol-4-yl]ethynyl}piperidin-1-yl)-2-oxoethyl]-1H-1,2,3-triazol-4-yl}methyl)-N-{[1 (2-{[5-fluoro-4-(4-fluoro-2-methoxyphenyl)pyridin-2-yl]amino}pyridin-4-yl)methyl](methyl)oxo-λ^6-sulfanylidene}piperidine-3-carboxamide] |  | 1620 |  | 0.18 | 1480 | 4.8 (≈ 4.81 µg/mL) |
| COc1cc(F)ccc1-c1cc(Nc2cc(CS(C)(=O)=NC(=O)CN3CCC(c4cn(C5CN(C(=O)CNc6cccc7c6C(=O)N(C6CCC(=O)NC6=O)C7=O)C5)nn4)CC3)ccn2)ncc1F (stereo not drawn) [Compound 4.59, 2-(4-(1-(1-((2-(2,6-dioxopiperidin-3-yl)-1,3-dioxoisoindolin-4-yl)glycyl)azetidin-3-yl)-1H-1,2,3-triazol-4-yl)piperidin-1-yl)-N-(((2-((5-fluoro-4-(4-fluoro-2-methoxyphenyl)pyridin-2-yl)amino)pyridin-4-yl)methyl)(methyl)(oxo)-16-sulfaneylidene)acetamide] | 210 | 110 | 5.0 (≈ 4.83 µg/mL) | 0.09 |  |  |
| COc1cc(F)ccc1-c1cc(Nc2cc(CS(C)(=O)=NC(=O)C3CCCN(Cc4cn(CC(=O)N5CCN(CCCc6cccc7c6C(=O)N(C6CCC(=O)NC6=O)C7=O)CC5)nn4)C3)ccn2)ncc1F (stereo not drawn) [Compound 4.73, 1-({1-[2-(4-{3-[2-(2,6-dioxopiperidin-3-yl)-1,3-dioxo-2,3-dihydro-1H-isoindol-4-yl]propyl}piperazin-1-yl)-2-oxoethyl]-1H-1,2,3-triazol-4-yl}methyl)-N-{[1 (2-{[5-fluoro-4-(4-fluoro-2-methoxyphenyl)pyridin-2-yl]amino}pyridin-4-yl)methyl](methyl)oxo-λ^6-sulfanylidene}piperidine-3-carboxamide] |  | 2630 |  | 0.13 | 700 | 3.5 (≈ 3.57 µg/mL) |
| COc1cc(F)ccc1-c1cc(Nc2cc(CS(C)(=O)=NC(=O)CCc3cn(CC4CCN(C5CN(C(=O)CNc6cccc7c6C(=O)N(C6CCC(=O)NC6=O)C7=O)C5)CC4)nn3)ccn2)ncc1F (stereo not drawn) [Compound 4.89, 3-(1-((1-(1-((2-(2,6-dioxopiperidin-3-yl)-1,3-dioxoisoindolin-4-yl)glycyl)azetidin-3-yl)piperidin-4-yl)methyl)-1H-1,2,3-triazol-4-yl)-N-(((2-((5-fluoro-4-(4-fluoro-2-methoxyphenyl)pyridin-2-yl)amino)pyridin-4-yl)methyl)(methyl) (oxo)-26-sulfaneylidene) propanamide] |  | 80 |  | 0.09 | 170 | 1.8 (≈ 1.79 µg/mL) |
